Measurements reported in ChEMBL document CHEMBL5532696, “Discovery of new tricyclic spiroindole derivatives as potent P-glycoprotein inhibitors for reversing multidrug resistance enabled by a synthetic methodology-based library” (RSC Med Chem, 2024).
The source made the active and inactive calls. The rule behind the calls is not given here.

Legend:
[1] = system: Eca-109/VCR; assay: Reversal of vincristine resistance in human Eca-109/VCR cells assessed as reversal fold by measuring ratio of vincristine IC50 to vincristine IC50 in presence of test compound at 5 uM incubated for 48 hrs by CCK8 assay; format: functional
[2] = system: Eca-109/VCR; assay: Effect on ABCG2 protein expression in human Eca-109/VCR cells at 5 to 10 uM incubated for 24 hrs by Western blotting analysis; format: functional, cell-based; conditions: dose 5-10 µM
[3] = system: Eca-109/VCR; assay: Induction of apoptosis in human Eca-109/VCR cells assessed as early apoptotic cells at 5 uM incubated for 48 hrs in presence of vincristine at 50 nM by Annexin V-FITC/DAPI staining based flow cytometry analysis (reference value: 1.33 %); format: functional
[4] = system: Eca-109/VCR; assay: Induction of apoptosis in human Eca-109/VCR cells assessed as necrotic cells at 1 uM incubated for 48 hrs by Annexin V-FITC/DAPI staining based flow cytometry analysis (reference value: 0.073 %); format: functional
[5] = system: Eca-109/VCR; assay: Inhibition of colony formation in human Eca-109/VCR cells at 0 to 2 uM incubated for 48 hrs by crystal violet staining based assay; format: functional, cell-based; conditions: dose 0-2 µM
[6] = system: Eca-109/VCR; assay: Antiproliferative activity against human Eca-109/VCR cells assessed as reduction in cell viability at 10 uM incubated for 48 hrs by CCK-8 assay; format: functional, cell-based
[7] = Reversal of vincristine resistant in human Eca-109/VCR cells assessed as reversal fold by measuring ratio of mitoxantrone IC50 to mitoxantrone IC50 in presence of test compound at 5 uM incubated for 48 hrs by CCK8 assay; format: functional
[8] = system: Eca-109/VCR; assay: Induction of apoptosis in human Eca-109/VCR cells assessed as early apoptotic cells at 1 uM incubated for 48 hrs in presence of vincristine at 50 nM by Annexin V-FITC/DAPI staining based flow cytometry analysis (reference value: 1.33 %); format: functional
[9] = system: Eca-109/VCR; assay: Induction of apoptosis in human Eca-109/VCR cells assessed as necrotic cells at 5 uM incubated for 48 hrs by Annexin V-FITC/DAPI staining based flow cytometry analysis (reference value: 0.073 %); format: functional
[10] = Reversal of vincristine resistant in human Eca-109/VCR cells assessed as reversal fold by measuring ratio of docetaxel IC50 to docetaxel IC50 in presence of test compound at 5 uM incubated for 48 hrs by CCK8 assay; format: functional
[11] = system: Eca-109/VCR; assay: Induction of apoptosis in human Eca-109/VCR cells assessed as early apoptotic cells at 5 uM incubated for 48 hrs by Annexin V-FITC/DAPI staining based flow cytometry analysis (reference value: 0.97 %); format: functional
[12] = system: Eca-109/VCR; assay: Reversal of vincristine resistance in human Eca-109/VCR cells assessed as effect on P-gp protein expression at 5 to 10 uM incubated for 24 hrs by Western blotting analysis; format: functional, cell-based; conditions: dose 5-10 µM
[13] = system: Eca-109/VCR; assay: Induction of apoptosis in human Eca-109/VCR cells assessed as late apoptotic cells at 5 uM incubated for 48 hrs in presence of vincristine at 50 nM by Annexin V-FITC/DAPI staining based flow cytometry analysis (reference value: 5.06 %); format: functional
[14] = system: Eca-109/VCR; assay: Induction of apoptosis in human Eca-109/VCR cells assessed as necrotic cells at 5 uM incubated for 48 hrs in presence of vincristine at 50 nM by Annexin V-FITC/DAPI staining based flow cytometry analysis (reference value: 0.062 %); format: functional
[15] = Reversal of vincristine resistant in human Eca-109/VCR cells assessed as reversal fold by measuring ratio of doxorubicin IC50 to doxorubicin IC50 in presence of test compound at 5 uM incubated for 48 hrs by CCK8 assay; format: functional
[16] = system: Eca-109/VCR; assay: Induction of apoptosis in human Eca-109/VCR cells assessed as late apoptotic cells at 5 uM incubated for 48 hrs by Annexin V-FITC/DAPI staining based flow cytometry analysis (reference value: 4.31 %); format: functional
[17] = system: Eca-109/VCR; assay: Induction of apoptosis in human Eca-109/VCR cells assessed as late apoptotic cells at 1 uM incubated for 48 hrs by Annexin V-FITC/DAPI staining based flow cytometry analysis (reference value: 4.31 %); format: functional
[18] = system: Eca-109/VCR; assay: Inhibition of colony formation in human Eca-109/VCR cells assessed as reduction in number of colonies incubated for 48 hrs in presence of vincristine by crystal violet staining based assay; format: functional, cell-based; conditions: dose 0-2 µM
[19] = system: Eca-109/VCR; assay: Induction of apoptosis in human Eca-109/VCR cells assessed as late apoptotic cells at 1 uM incubated for 48 hrs in presence of vincristine at 50 nM by Annexin V-FITC/DAPI staining based flow cytometry analysis (reference value: 5.06 %); format: functional
[20] = system: Eca-109/VCR; assay: Antiproliferative activity against human Eca-109/VCR cells assessed as cell viability at 5 uM incubated for 48 hrs by CCK-8 assay (reference value: 100 +/- 1.8%); format: functional; conditions: read-out: Activity
[21] = Reversal of vincristine resistant in human Eca-109/VCR cells assessed as reversal fold by measuring ratio of lapatinib IC50 to lapatinib IC50 in presence of test compound at 5 uM incubated for 48 hrs by CCK8 assay; format: functional
[22] = system: Eca-109/VCR; assay: Induction of apoptosis in human Eca-109/VCR cells assessed as early apoptotic cells at 1 uM incubated for 48 hrs by Annexin V-FITC/DAPI staining based flow cytometry analysis (reference value: 0.97 %); format: functional
[23] = system: Eca-109/VCR; assay: Induction of apoptosis in human Eca-109/VCR cells assessed as viable cells at 5 uM incubated for 48 hrs in presence of vincristine at 50 nM by Annexin V-FITC/DAPI staining based flow cytometry analysis (reference value: 93.5 %); format: functional; conditions: read-out: Activity
[24] = system: Eca-109/VCR; assay: Effect on MRP1 protein expression in human Eca-109/VCR cells at 5 to 10 uM incubated for 24 hrs by Western blotting analysis; format: functional, cell-based; conditions: dose 5-10 µM
[25] = system: Eca-109/VCR; assay: Induction of apoptosis in human Eca-109/VCR cells assessed as viable cells at 5 uM incubated for 48 hrs by Annexin V-FITC/DAPI staining based flow cytometry analysis (reference value: 94.6 %); format: functional; conditions: read-out: Activity
[26] = system: Eca-109/VCR; assay: Induction of apoptosis in human Eca-109/VCR cells assessed as necrotic cells at 1 uM incubated for 48 hrs in presence of vincristine at 50 nM by Annexin V-FITC/DAPI staining based flow cytometry analysis (reference value: 0.062 %); format: functional
[27] = system: Eca-109/VCR; assay: Induction of apoptosis in human Eca-109/VCR cells assessed as viable cells at 1 uM incubated for 48 hrs in presence of vincristine at 50 nM by Annexin V-FITC/DAPI staining based flow cytometry analysis (reference value: 93.5 %); format: functional; conditions: read-out: Activity
[28] = system: Eca-109/VCR; assay: Induction of apoptosis in human Eca-109/VCR cells assessed as viable cells at 1 uM incubated for 48 hrs by Annexin V-FITC/DAPI staining based flow cytometry analysis (reference value: 94.6 %); format: functional; conditions: read-out: Activity
[29] = Reversal of vincristine resistant in human Eca-109/VCR cells assessed as reversal fold by measuring ratio of colchicine IC50 to colchicine IC50 in presence of test compound at 5 uM incubated for 48 hrs by CCK8 assay; format: functional

CN1C(=O)[C@@]2(c3cc(Cl)ccc31)[C@H](C(=O)NC(C)(C)C)[C@H]1c3ccc([N+](=O)[O-])cc3C(=O)[C@H]1[C@@H]2c1ccccc1
Ratio IC50 [1]: 727.2 | Activity [2]: inactive | Activity [3]: 17.9% | Activity [4]: 0.082% | inhibition [5]: inactive | Activity [6]: inactive | Ratio IC50 [7]: 12 | Activity [8]: 0.99% | Activity [9]: 0.064% | Ratio IC50 [10]: 313.8 | Activity [11]: 1.19% | Activity [12]: inactive | Activity [13]: 4.28% | Activity [14]: 0.31% | Ratio IC50 [15]: 121 | Activity [16]: 4.19% | Activity [17]: 4.73% | inhibition [18]: Dose-Dependent Effect | Activity [19]: 7.54% | viability at 5 µM [20]: 98.9% | Ratio IC50 [21]: 1.4 | Activity [22]: 1.27% | viability at 5 µM [23]: 77.5% | Activity [24]: inactive | viability at 5 µM [25]: 94.6% | Activity [26]: 0.15% | viability at 1 µM [27]: 91.3% | viability at 1 µM [28]: 93.9% | Ratio IC50 [29]: 139.7
